Test results reported in patent US20130253048A1, “Pharmaceutical Composition for Promoting Osteogenesis Containing Axial-equatorial Aryl-oriented Furofuran-type Lignan, and Pharmaceutical Preparation, Functional Food Product, and Health Food Product Comprising Composition” (ERINA CO., INC., priority 2010, published 2013).

Columns and labels:
[1] = system: ovariectomized mouse (type I osteoporosis model animal); assay: Change of bone mass in type I osteoporosis model animal (ovariectomized mice, dosing 3 months, femur pQCT); type: in vivo
Description: Female Slc: ddy mice of 4 weeks old (Japan SLC, Inc.) was operated with ovariectomy to use as a type I osteoporosis model animal. Also, in order to delete the affection by invasion, a group which is operated without ovariectomy (Sham operation) is set (Sham group). These were the […] model animals.
Animal bedding were changed twice a week and always to use all fresh one, CRF-1 (Oriental Yeast Co., Ltd.) is fed as feed and deionized water as drinking water were freely given. Their body weights were weighed twice a week by the end of the experiment.
Fargesin was dissolved in 30 mL of a solution (it is referred to as “TD solution”, hereinbelow) containing 4% dimethyl sulfoxide (it is referred to as “DMSO”, hereinbelow) and 4% TWEEN 80 (both were purchased from Wako Pure Chemical Industries, Ltd.) so as that a dosage amount of fargesin becomes 20 mg/kg body wt/day, or […].
After the surgical operation, the mice were adapted to the circumstances for 5 days, and then they were divided to the Sham group, the negative control, the positive control group, and the test substance administration group (6 mice per group). The ovariectomized mice were used for the negative control group, the positive control group, and the test substance administration group.
Fargesin solution was daily administrated to the ovariectomized mice in the test group at the dosage of 20 mg/kg body wt/day (it is referred to as “F20 group”, hereinbelow) or 100 mg/kg body wt/day (it is referred to as “F100 group”, hereinbelow) for 3 month p.o.
In order to study effects of fargesin on the bone, the femur, the largest long bone, was used.
The mice in each group were killed by the cervical dislocation under diethyl ether anesthesia. Their right femurs were excised with muscles, and the muscles were removed from the femur after the excision. Lengths of the excised bones from the mice in the groups were measured, and they were dipped in 70% ethanol to be fixed.
In FIG. 3, the bone was shown schematically. The long bone (tubular bone) was composed of two thick and rounded ends (epiphysis), and thin and long part between them (a shaft). The bone extends to longitudinal direction, depending on the growth of a plate-shape epiphyseal cartilage (a growth plate) between the epiphysis and the shaft. The region of 1 mm proximal side from the A position for a measurement was set to that from 1 mm proximal region (epiphysis) from the distal growth plate as decided as the measurement region.
The bone density was measured by using the peripheral quantitative computed tomography (pQCT, XCT Research SA+, Stratec Medizintechnik GmbH, Merk Ltd) (FIG. 3B). The measurement was performed under the conditions: a diameter of 90 mm, a voxel size of 0.12 mm, a CT speed of 10 mm/sec, and a block number of 1. Bone mineral content (mg/mm), bone density (mg/cm^3), and cross section of the bone (mm^2) of the entire of tomographic images (whole bone area) were calculated.
Next, the area of the cancellous bone was extracted (peel mode 20), and then the bone mineral amount (mg/mm), the section of the bone (mm^2), and the bone density (mg/cm^3) were calculated. Further to the cortical bone, the bone mineral amount (mg/mm), the bone density (mg/cm^3), the section of the bone (mm^2), a bone thickness (mm), the periosteum perimeter of the cortical bone (mm), and the endosteum perimeter of the cortical bone (mm) were calculated.
Based on the bone diameter and the bone density measured by the pQCT, SSI was calculated. SSI is composed of Polar SSI (torsion strength in polar coordination), X-axis SSI (strength in X axis, three-point bending strength), and Y-axis SSI (Y axis strength, three-point lateral bending strength), and it is expressed by the following general equation.
Wherein, Z is the coefficient of the cross section (mm^3), CBD is the bone density of the cortical bone (mg/cm^3), and ND is the physiological bone density (1200 mg/cm^3). The coefficient Z is shown as the following equation.

[2] = system: ovariectomized mouse (OVX mouse); assay: Bone formation in ovariectomized mouse (OVX mouse), dosing after bone resorption induction period, femur pQCT; type: in vivo; settings: 80 μg/kg/day s.c.
Procedure: Four-week-old female Slc; ddy mice (Japan SLC, Inc.) were purchased, and they were divided into 8 groups without acclimate keeping (6 mice per group). They were anesthetized by using 50 mg/kg of pentobarbital to be ovariectomized (it is referred to as “OVX” herein below) or to have Sham operation (it is referred to as “Sham” herein below) under the anesthesia which is given by intraperitoneal administration of 50 mg/kg of Somnopentyl (pentobarbital sodium).
From the second day of the ovariectomy (or Sham operation), each group was maintained under the condition of 12 hour light/dark cycle, 23±3 degree centigrade as the room temperature, and humidity 55±5% for 2 months as the bone resorption induction period. The animal bedding was exchanged twice a week and all fresh bedding was used at all times. CRF-1 (Oriental Yeast Co., Ltd.) as the feed and deionized water as drinking water were freely given.
After two month period from the test start, the bone resorption induction period, the test substance were given to each group at the amount shown in the following Table 7 for 3 month.
Ninety % of MeOH fraction (Shin-i) obtained in Example 1 and Fargesin (may refer to “Far” thereafter) were respectively dissolved into TD solution at the concentration shown in Table 7, and then they were administrated per os.
Human PTH (1-34) (herein below, it is sometimes referred to as “hPTH (1-34)”) were dissolved in distilled water at the concentration of 80 μg/kg/day, and it was administrated subcutaneously.
After 3 month from the administration start, the mice belonging to all of the groups were weighed. They were anesthetized by using diethylether, and were collected their blood from their hearts, and then they were died. Then, organs such as the uterus, the white adipose tissue (WAT), the brown adipose tissue (BAT), the liver, the spleen, and both left and right lower extremities were removed. The left and right lower extremities were separated into the femurs and the tibias, and they were stored in 70% EtOH under the room temperature.
The muscles were removed from the obtained femur (right), and then its bone density and the like were measured by using pQCT employed in Example 1 under the following conditions.
Recognition of contour (CONTMODE): 2 (auto search of ROI)
Recognition method of cancellous bone: Surface & Area
Ration of cancellous bone area to all of the cross section areas: 35%
CORTMODE used in CORTBD: 1* * Voxels not larger than the standard value for distinguishing the cortical bone from the cancellous bone (threshold: threshold) were omitted. Each tissue weight was also measured.
TH value used in CORTBD: 690
Among the all data of cancellous bone density obtained from pQCT, both of the highest and the lowest data were deleted to obtain the Median. As to the other parameters were treated as the same as this, the graph was made with N=6. Statistical analysis was performed by using the Dennett's two-sided t test.

TRACP5b = assay: Serum TRACP5b of OVX mice (bone metabolism marker); type: in vivo, mouse; settings: 80 μg/kg/day s.c.; compared to the OVX group
Procedure: All obtained blood from the heart under diethyl ether anesthesia at dissection was stored at 4 degree centigrade for 24 hours. Then, the blood was centrifuged at 3,000 rpm (4,000×g) for 15 minutes to separate the sera.
According to the protocol of Mouse TRAP™ Assay (Immuno-diagnostic Systems Ltd, the United of Kingdom), TRACP5b in the obtained sera was determined.

[3] = OVX mice, B100 group: 100 μg/kg body wt/day i.p.
[4] = OVX mice, B100 group: 100 μg/kg body wt/day i.p. (text prints F100 group)
[5] = OVX mice, B100 group: 100 μg/kg body wt/day i.p., right femur, pQCT
[6] = OVX mice, 3 months dosing after 2-month induction

`C[C@]12CC[C@@H]3c4ccc(O)cc4CC[C@H]3[C@@H]1CC[C@@H]2O` [β-estradiol, reference compound] was tested, and the “Average body weight during mouse growth” value ([1]; B100 group: 100 μg/kg body wt/day i.p., versus NC group) was “lower than that of NC group mice”, the “Cortical bone Bone density” value [1, 3] was 867.475 ± 13.724 mg/mL and the “Cortical bone Bone thickness” value [1, 3] was 0.365 ± 0.038 mm. The “Cortical bone adventitia diameter” value [1, 3] was 7.9895 ± 0.096 mm, the “Cortical bone lining membrane diameter” value [1, 3] was 5.699 ± 0.229 mm and the “Polar axis bone strength (Table 3)” value [1, 3] was 1.946 ± 0.107 mm^3. The “bone mineral mass, cancellous bone” value [1, 3] was 0.725±0.110 mg/mm, the “bone mineral mass, whole bone” value [1, 3] was 3.325±0.203 mg/mm and the “bone mineral mass, cortical bone” value [1, 4] was 2.163±0.230 mg/mm. For the same molecule, the “cross section area of the bone, cortical bone” value [1, 4] was 2.4825±0.230 mm^2, the “Polar axis strength (polar coordinates strength)” value ([1]; OVX mice, B100 group: 100 μg/kg body wt/day i.p., SSI from pQCT) was 1.376±0.088 mm^3 and the “Bone density Cancellous bone” value [1, 5] was 399.050 ± 53.851 mg/mL. The “Bone density whole bone” value [1, 5] was 652.025 ± 28.386 mg/mL.

In the case of “hPTH(1-34): Human PTH (1-34), dissolved in distilled water, administrated subcutaneously [reference compound]”, the “Bone density of cancellous bone, relative value” ([2]; 5M Sham = 100) is reported as 76.1, the “Bone density of cortical bone, relative value” ([2]; 5M Sham = 100) is reported as 92.2 and the “Bone density of the whole bones, relative value” ([2]; 5M Sham = 100) is reported as 86.0. The “Bone strength (polar coordinates torsion strength)” value ([2]; compared to Control OVX group) was “significantly increased”, the “Bone density of cancellous bone” value [2, 6] was 88.83 ± 30.90 mg/cm^2 and the “Bone density of cortical bone” value [2, 6] was 906.50 ± 32.19 mg/cm^2. The “Bone thickness of cortical bone” value [2, 6] was 0.22 ± 0.03 mm, the “Cross section area of cortical bone” value [2, 6] was 1.69 ± 0.25 mm^2 and the “Perimeter of cortical bone adventitia” value [2, 6] was 8.37 ± 0.26 mm. For the same molecule, the “Perimeter of cortical bone lining membrane” value [2, 6] was 6.98 ± 0.34 mm, the “Bone density of the whole bones” value ([2]; OVX mice, 3 months dosing after 2-month induction, right femur, pQCT) was 452.25 ± 49.00 mg/cm^2 and the “level of TRACP5b in the sera” value (TRACP5b) was “did not show major alteration”.
